Data as given in patent publication US5747235A, “Silver halide light sensitive emulsion layer having enhanced photographic sensitivity” (Eastman Kodak Company, priority 1996, dated 1998).
Where a name gives a salt, the structure may show the parent alone.

Tests used:
[1] = Example 8: photographic speed and fog, 365 nm exposure, cubic emulsion C-1; parameters: Fog: unit not given here; settings: for sensitivity increase: both undyed cubic emulsions (C-1 and C-2)
Procedure: (§1) For photographic evaluation, each of the coating strips was exposed for 0.1 sec to a 365 nm emission line of a Hg lamp filtered through a Kodak Wratten filter number 18A and a step wedge ranging in density from 0 to 4 density units in 0.2 density steps. The exposed film strips were developed for 6 min in Kodak Rapid X-ray Developer (KRX). S365, relative sensitivity at 365 nm, was evaluated at a density of 0.2 units above fog.
Two cubic emulsions with uniform halide composition were precipitated using deionized gelatin. Emulsion C-1 was a AgErI emulsion with a 3% I content and a cubic edge length of 0.47 μm and emulsion C-2 was an AgBr emulsion with a cubic edge length of 0.52 μm. The emulsions were sulfur sensitized by adding 1,3-dicarboxymethyl-1,3-dimethyl-2-thiourea at 40° C.; the temperature was then raised to 60° C. at a rate of 5° C./3 min and the emulsions held for 20 min before cooling to 40° C. The amounts of the sulfur sensitizing compound used were 1.0×10^-5 mole/mole Ag for emulsion C-1, and 6.0×10^-6mole/mole Ag for emulsion C-2. These experimental coating variations contained the hydroxybenzene, 2,4-disulfocatechcol (HB3) at a concentration of 13 mmole/mole Ag, added to the melt before the addition of any further compounds. Some of the variations were then dyed with the sensitizing dye D-II, added from methanol solution. The fragmentable electron donor compounds were then added to the emulsion melts at 40° C. and coatings were prepared and tested as described in Example 1 except that the additional gelatin used to prepare the coatings described in Table VIII was deionized gelatin. Also, the dyed coatings were tested for their response to a spectral exposure as described in Example 3.

[2] = Example 11: photographic sensitivity and fog, color format, blue sensitized emulsion T-2; settings: for Photographic Sensitivity SWR2B: control=100
Procedure: The AgBrI tabular silver halide emulsion T-2 from Example 3 was optimally chemically and spectrally sensitized by adding NaSCN, 1.07 mmole of the blue sensitizing dye D-I per mole of silver, Na3 Au(S2 O3)2 ·2H2 O, Na2 S2 O3 ·5H2 O, and a benzothiazolium finish modifier and then subjecting the emulsion to a heat cycle to 65° C. The hydroxybenzene, 2,4-disulfocatechcol (HB3) at a concentration of 13×10^-3 mole/mole Ag was added to the emulsion melt before the start of the chemical sensitization procedure. This chemically sensitized emulsion was then used to prepare the experimental coating variations given in Table X. For all the variations in Table X, the antifoggant and stabilizer tetraazaindene (TAI) was added to the emulsion melt in an amount of 1.75 g/mole Ag before any further addenda. The fragmentable two-electron donors S-3, S-9, S-6, or S-8 were then added to the emulsion melt.
The melts were prepared for coating by adding additional water, deionized gelatin and coating surfactants. Coatings were prepared by combining the emulsion melts with a melt containing deionized gelatin and an aqueous dispersion of the cyan-forming color coupler CC-1 and coating the resulting mixture on acetate support. The final coatings contained Ag at 0.81 g/m^2, coupler at 1.61 g/m^2, and gelatin at 3.23 g/m^2. The coatings were overcoated with a protective layer containing gelatin at 1.08 g/m^2, coating surfactants, and a bisvinylsulfonylmethyl ether as a gelatin hardening agent. The structure of the color coupler CC-1 is given below: [drawing 120]
For photographic evaluation, each of the coating strips was exposed for 0.01 sec to a 3000K color temperature tungsten lamp filtered to give an effective color temperature of 5500K and further filtered through a Kodak Wratten filter number 2B, and a step wedge ranging in density from 0 to 4 density units in 0.20 density steps. This exposure gives light absorbed mainly by the blue sensitizing dye. The exposed film strips were developed for 31/4 minutes in Kodak C-41 color developer. SWR2B, relative sensitivity for this filtered exposure, was evaluated at a cyan density of 0.15 units above fog.
The AgBrI tabular emulsion T-2 as described in Example 3 was sensitized as described in Example 10 except that the hydroxybenzene HB3 was added at the completion of the chemical sensitization procedure. For all the variations in Table XI, the antifoggant and stabilizer tetraazaindene (TAI) was added to the emulsion melt in an amount of 1.75 g/mole Ag before any further addenda. The fragmentable two-electron donors S-12, S-14, S-13, or S-11 were then added to the emulsion melt. The melts were then coated and tested as described in Example 10.

[3] = Example 6: photographic speed and fog, 365 nm exposure, emulsion T-2; settings: for effect on dye desensitization: red dyed emulsion (D-II), 365 nm
Procedure: as §1
An AgBrI tabular silver halide emulsion (Emulsion T-2) was prepared containing 4.05% total I distributed such that the central portion of the emulsion grains contained 1.5% I and the perimeter area contained substantially higher I, as described by Chang et. al., U.S. Pat. No. 5,314,793. […] This emulsion was precipitated using deionized gelatin. The emulsion was sulfur sensitized by adding 8.5×10^-6 mole 1,3-dicarboxymethyl-1,3-dimethyl-2-thiourea /mole Ag at 40° C.; the temperature was then raised to 60° C. at a rate of 5° C./3 min and the emulsions held for 20 min before cooling to 40° C. The chemically sensitized emulsion was then used to prepare coatings containing the fragmentable two-electron donor compounds. All of the experimental coating variations in Table III contained the hydroxybenzene 2,4-disulfocatechol (HB3) at a concentration of 13 mmole/ mole Ag, added to the melt before the addition of any further addenda. Where present, the blue sensitizing dye D-I or the red sensitizing dye D-II were added from methanol solution to the emulsion at 40° C. after the chemical sensitization and disulfocatechol addition. The fragmentable two-electron donor compounds were added to the emulsion at 40° C. and the coatings were prepared and tested as described in Example 1, except that the additional gelatin used to prepare the coatings described in Table III was deionized gelatin.
The chemically sensitized AgErI tabular emulsion T-2 as described in Example 3 was used to prepare the experimental coating variations listed in Table VI, comparing fragmentable electron donating compounds PMT-1 and PMT-2 that contain a phenylmercaptotetrazole as the silver halide adsorbing group. For some of the experimental variations listed in Table VI the red sensitizing dye D-II was added from methanol solution to the emulsion at 40° C. after the chemical sensitization. The fragmentable electron donating compounds were then added to the emulsion and coatings prepared and tested for sensitivity at 365 nm and for spectral sensitivity as described in Example 3.

[4] = 0.16 x10^-3 mol/mol Ag, no dye, control=100

## CCSCCN(c1ccccc1)C(C)C(=O)O (centres unmarked) [Compound S-9, N-(Phenyl)-N-(2-thioethyl-ethyl)alanine sodium salt]
[1]; 0.005 x10^-3 mol/mol Ag, dye II 0.44 x10^-3
  Fog: 0.18
[1]; 0.005 x10^-3 mol/mol Ag, dye II 0.44 x10^-3, dyed control 105
  S365: 162
[1]; 0.016 x10^-3 mol/mol Ag, dye II 0.44 x10^-3
  Fog: 0.21
[1]; 0.016 x10^-3 mol/mol Ag, dye II 0.44 x10^-3, dyed control 105
  S365: 191
[1]; 0.05 x10^-3 mol/mol Ag, no dye
  Fog: 0.07
[1]; 0.05 x10^-3 mol/mol Ag, no dye, control=100
  S365: 229
[1]; 0.16 x10^-3 mol/mol Ag, no dye
  Fog: 0.07
[1]; [4]
  S365: 234
[1]
  sensitivity increase: approximately a factor of two

## CCSCCN(c1ccc(C(=O)O)cc1)C(C)C(=O)O (centres unmarked) [Compound S-11]
[1]; 0.05 x10^-3 mol/mol Ag, dye II 0.44 x10^-3
  Fog: 0.14
[1]; 0.05 x10^-3 mol/mol Ag, dye II 0.44 x10^-3, dyed control 105
  S365: 162
[1]; 0.16 x10^-3 mol/mol Ag, dye II 0.44 x10^-3
  Fog: 0.16
[1]; 0.16 x10^-3 mol/mol Ag, dye II 0.44 x10^-3, dyed control 105
  S365: 186
[1]; 0.16 x10^-3 mol/mol Ag, no dye
  Fog: 0.07
[1]; [4]
  S365: 219
[1]; 0.50 x10^-3 mol/mol Ag, no dye
  Fog: 0.07
[1]; 0.50 x10^-3 mol/mol Ag, no dye, control=100
  S365: 234
[1]
  sensitivity increase: approximately a factor of two
[2]; 0.22 x10^-3 mol/molAg
  Fog: 0.10
  Photographic Sensitivity SWR2B: 166
[2]; 0.44 x10^-3 mol/molAg
  Fog: 0.09
  Photographic Sensitivity SWR2B: 178

## CCSCCN(c1ccc(Cl)cc1)C(C)C(=O)O (centres unmarked) [Compound S-12, N-(4-Chlorophenyl)-N-(2-thioethyl-ethyl)alanine sodium salt]
[2]; 0.22 x10^-3 mol/molAg
  Fog: 0.11
  Photographic Sensitivity SWR2B: 191
[2]; 0.44 x10^-3 mol/molAg
  Fog: 0.16
  Photographic Sensitivity SWR2B: 204

## CCSCCN(c1cccc(C(N)=O)c1)C(C)C(=O)O (centres unmarked) [Compound S-13]
[2]; 0.22 x10^-3 mol/molAg
  Fog: 0.10
  Photographic Sensitivity SWR2B: 204
[2]; 0.44 x10^-3 mol/molAg
  Fog: 0.16
  Photographic Sensitivity SWR2B: 209

## CCSCCN(c1ccccc1)C(CC(=O)O)C(=O)O (centres unmarked) [Compound S-14]
[2]; 0.22 x10^-3 mol/molAg
  Fog: 0.09
  Photographic Sensitivity SWR2B: 170
[2]; 0.44 x10^-3 mol/molAg
  Fog: 0.09
  Photographic Sensitivity SWR2B: 178

## Cc1ccc(N(CCC(=O)Nc2cccc(-n3nnnc3S)c2)C(C)C(=O)O)cc1 (centres unmarked) [PMT-1]
[3]; 0.0006 x10^-3 mole/mole Ag, dye II 0.86 x10^-3
  Fog: 0.14
[3]; 0.0006 x10^-3 mole/mole Ag, dye II 0.86 x10^-3, dyed control 73
  S365: 97
[3]; 0.0017 x10^-3 mole/mole Ag, dye II 0.86 x10^-3
  Fog: 0.27
[3]; 0.0017 x10^-3 mole/mole Ag, dye II 0.86 x10^-3, dyed control 73
  S365: 115
[3]; 0.0055 x10^-3 mole/mole Ag, dye II 0.86 x10^-3
  Fog: 0.53
[3]; 0.0055 x10^-3 mole/mole Ag, dye II 0.86 x10^-3, dyed control 73
  S365: 102
[3]; 0.006 x10^-3 mole/mole Ag, no dye
  Fog: 0.08
[3]; 0.006 x10^-3 mole/mole Ag, no dye, control=100
  S365: 195
[3]; 0.017 x10^-3 mole/mole Ag, no dye
  Fog: 0.13
[3]; 0.017 x10^-3 mole/mole Ag, no dye, control=100
  S365: 191
[3]
  effect on dye desensitization: effective in ameliorating dye desensitization

## CC(C(=O)O)N(CCC(=O)Nc1cccc(-n2nnnc2S)c1)c1ccccc1 (centres unmarked) [PMT-2]
[3]; 0.0005 x10^-3 mole/mole Ag, dye II 0.86 x10^-3
  Fog: 0.13
[3]; 0.0005 x10^-3 mole/mole Ag, dye II 0.86 x10^-3, dyed control 73
  S365: 102
[3]; 0.0016 x10^-3 mole/mole Ag, dye II 0.86 x10^-3
  Fog: 0.23
[3]; 0.0016 x10^-3 mole/mole Ag, dye II 0.86 x10^-3, dyed control 73
  S365: 118
[3]; 0.005 x10^-3 mole/mole Ag, dye II 0.86 x10^-3
  Fog: 0.40
[3]; 0.005 x10^-3 mole/mole Ag, dye II 0.86 x10^-3, dyed control 73
  S365: 118
[3]; 0.005 x10^-3 mole/mole Ag, no dye
  Fog: 0.06
[3]; 0.005 x10^-3 mole/mole Ag, no dye, control=100
  S365: 191
[3]; 0.016 x10^-3 mole/mole Ag, no dye
  Fog: 0.08
[3]; 0.016 x10^-3 mole/mole Ag, no dye, control=100
  S365: 186
[3]
  effect on dye desensitization: effective in ameliorating dye desensitization
